Laboratory results published in patent publication US20260337193A1, “SMALL MOLECULE INHIBITORS OF UBIQUITIN SPECIFIC PROTEASE 1 (USP1) AND USES THEREOF” (Insilico Medicine IP Limited, priority 2023, published 2026).

Experiments:
[1] = molecular target: T1, Human recombinant USP1/UAF1 (Homo sapiens, UniProt O94782); assay: Enzymatic assay: USP1/UAF1 deubiquitination of Ubiquitin Rhodamine 110 (kinetic fluorescence); format: biochemical; settings: 2 nM USP1/UAF1, 15 min preincubation at RT, HEPES pH 8.0, 500 nM Ubiquitin Rhodamine 110
T1 construct: purchased R & D E-568-050; host or cells: baculovirus infected Sf21 cells
T1 sequence (O94782 whole entry): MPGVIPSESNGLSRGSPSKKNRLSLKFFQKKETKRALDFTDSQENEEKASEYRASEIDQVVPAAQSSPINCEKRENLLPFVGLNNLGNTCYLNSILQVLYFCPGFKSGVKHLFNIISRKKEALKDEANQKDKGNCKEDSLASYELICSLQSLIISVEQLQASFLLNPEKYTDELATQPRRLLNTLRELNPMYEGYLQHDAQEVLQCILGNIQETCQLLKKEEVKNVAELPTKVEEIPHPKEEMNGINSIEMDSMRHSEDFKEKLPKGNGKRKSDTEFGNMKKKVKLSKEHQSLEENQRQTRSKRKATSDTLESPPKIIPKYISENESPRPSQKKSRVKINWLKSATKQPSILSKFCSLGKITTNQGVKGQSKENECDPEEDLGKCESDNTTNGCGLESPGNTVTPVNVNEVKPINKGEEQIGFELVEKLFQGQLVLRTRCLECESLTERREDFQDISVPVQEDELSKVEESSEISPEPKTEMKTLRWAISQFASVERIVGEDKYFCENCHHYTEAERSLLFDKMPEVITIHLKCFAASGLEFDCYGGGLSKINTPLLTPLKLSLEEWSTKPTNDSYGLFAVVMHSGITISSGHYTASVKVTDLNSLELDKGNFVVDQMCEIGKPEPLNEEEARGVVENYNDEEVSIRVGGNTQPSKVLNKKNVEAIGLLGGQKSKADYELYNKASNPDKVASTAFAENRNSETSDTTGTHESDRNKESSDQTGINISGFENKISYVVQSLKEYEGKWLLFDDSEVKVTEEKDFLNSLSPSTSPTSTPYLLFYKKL
T1 sequence (Q8TAF3 whole entry partner): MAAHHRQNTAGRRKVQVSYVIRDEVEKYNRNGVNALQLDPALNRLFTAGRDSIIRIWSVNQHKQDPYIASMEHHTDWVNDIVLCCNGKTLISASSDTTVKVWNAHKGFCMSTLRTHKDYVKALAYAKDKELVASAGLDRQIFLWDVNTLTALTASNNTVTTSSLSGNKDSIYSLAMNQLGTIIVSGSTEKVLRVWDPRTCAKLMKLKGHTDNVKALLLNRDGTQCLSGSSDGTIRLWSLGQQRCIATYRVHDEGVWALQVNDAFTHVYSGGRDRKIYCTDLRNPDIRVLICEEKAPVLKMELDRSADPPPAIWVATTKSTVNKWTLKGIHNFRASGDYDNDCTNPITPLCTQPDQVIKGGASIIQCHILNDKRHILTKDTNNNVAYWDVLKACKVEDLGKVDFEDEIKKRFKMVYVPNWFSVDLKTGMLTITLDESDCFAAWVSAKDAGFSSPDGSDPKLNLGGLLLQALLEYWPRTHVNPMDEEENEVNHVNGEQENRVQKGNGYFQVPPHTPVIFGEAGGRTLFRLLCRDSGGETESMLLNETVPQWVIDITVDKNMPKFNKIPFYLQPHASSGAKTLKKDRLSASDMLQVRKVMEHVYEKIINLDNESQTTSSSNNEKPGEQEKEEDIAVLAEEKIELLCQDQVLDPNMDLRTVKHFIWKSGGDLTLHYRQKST
Method: Example A1: Enzymatic Assay
Human recombinant USP1/UAF1 expressed in baculovirus infected Sf21 cells were used (R & D, E-568-050). Test compound and/or vehicle was incubated with 2 nM of USP1/UAF1 in modified HEPES buffer pH 8.0 for 15 minutes at RT. The reaction was initiated by addition of 500 nM of Ubiquitin Rhodamine 110 (R & D, U-555-050) for kinetic reading. Slope change of fluorescence intensity was read spectrofluorimetrically at 485 nm/535 nm. Dose response of test compounds or reference compound ML-323 was analyzed by nonlinear regression of GraphPad prism software.

[2] = tested on: MDA-MB-436 cells; assay: MDA-MB-436 breast cancer cell proliferation assay (CellTiter-Glo); format: cell-based; settings: Homo sapiens, 168 h, 7 days, 37° C.
Method: Example A2: MDA-MB-436 Breast Cancer Cell Culture
MDA-MB-436 cells were grown in Leibovitz's L-15 medium with 10 μg/ml insulin, 16 μg/ml glutathione, 10% FBS. Cells were passaged at subconfluence after trypsinization and maintained in incubators at 37° C. in a humidified atmosphere with 5% CO2.
Example A3: MDA-MB-436 Breast Cancer Cell Proliferation Assay
Cell proliferation was determined using CellTiter-Glo® Luminescent Cell Viability Assay (Promega, #G7573). MDA-MB-436 cells were seeded in 384-well plates and allowed to attach for 24 h. Compounds were added into 384-well plate by ECHO, and incubated at 37° C. in a humidified atmosphere with 5% CO2. After 7 days, CellTiter-Glo® was added into 384 well plates, contents were mixed on an orbital shaker at 400 g for 2 min before centrifuging the plate for 2 min at 1000 rpm. After incubation at RT for 30 min, luminescence was read on envision.

SMILES | IC50 [1] [µM] | IC50 [2] [µM]
COc1ncnc(C2CC2)c1-c1nn(C)c2c1CN(c1ncc(-c3nc(C(F)(F)F)cn3C)s1)C2 [Compound 4, 2-(3-(4-cyclopropyl-6-methoxypyrimidin-5-yl)-1-methyl-4,6-dihydropyrrolo[3,4-c]pyrazol-5(1H)-yl)-5-(1-methyl-4-(trifluoromethyl)-1H-imidazol-2-yl)thiazole] | 0.05 to 1 | 0.05 to 1
COc1ncnc(C2CC2)c1-c1nnn2c1CN(c1ccc(-c3nc(C(F)(F)F)cn3C)cc1)CC2 [Compound 3, 3-(4-cyclopropyl-6-methoxypyrimidin-5-yl)-5-(4-(1-methyl-4-(trifluoromethyl)-1H-imidazol-2-yl)phenyl)-4,5,6,7-tetrahydro-[1,2,3]triazolo[1,5-a]pyrazine] | 0.05 to 1 | 0.05 to 1
COc1ncnc(C2CC2)c1-n1nc(C)c2c1CN(c1ccc(-c3nc(C(F)(F)F)cn3C)cc1F)CC2 [Compound 18, 1-(4-cyclopropyl-6-methoxypyrimidin-5-yl)-6-(2-fluoro-4-(1-methyl-4-(trifluoromethyl)-1H-imidazol-2-yl)phenyl)-3-methyl-4,5,6,7-tetrahydro-1H-pyrazolo[3,4-c]pyridine] | 0.05 to 1 | < 0.05
COc1ncnc(C2CC2)c1-c1nccc2c1CC(c1ccc(-c3nc(C(F)(F)F)cn3C)cn1)C2 (centres unmarked) [Compound 31, 1-(4-cyclopropyl-6-methoxypyrimidin-5-yl)-6-(5-(1-methyl-4-(trifluoromethyl)-1H-imidazol-2-yl)pyridin-2-yl)-6,7-dihydro-5H-cyclopenta[c]pyridine] | 0.05 to 1 | 1 to 10
CC(C)c1ncccc1-c1ncnc2c1CN(c1ccc(-c3nc(C(F)(F)F)cn3C)cc1)CC2 [Compound 1, 4-(2-isopropylpyridin-3-yl)-6-(4-(1-methyl-4-(trifluoromethyl)-1H-imidazol-2-yl)phenyl)-5,6,7,8-tetrahydropyrido[4,3-d]pyrimidine] | 1 to 10 | 1 to 10

Second part, the compound after the results:

IC50 [1] [µM] | IC50 [2] [µM] | SMILES
0.05 to 1 | < 0.05 | CCn1cc(C(F)(F)F)nc1-c1ccc(N2CCc3c(C)nn(-c4c(OC)ncnc4C4CC4)c3C2)nc1 [Compound 12, 1-(4-cyclopropyl-6-methoxypyrimidin-5-yl)-6-(5-(1-ethyl-4-(trifluoromethyl)-1H-imidazol-2-yl)pyridin-2-yl)-3-methyl-4,5,6,7-tetrahydro-1H-pyrazolo[3,4-c]pyridine]
< 0.05 | < 0.05 | Cc1cnn(C(C)C)c1-n1nc(C)c2c1CN(c1ccc(-c3nc(C(F)(F)F)cn3C)c(F)c1)CC2 [Compound 30, 6-(3-fluoro-4-(1-methyl-4-(trifluoromethyl)-1H-imidazol-2-yl)phenyl)-1-(1-isopropyl-4-methyl-1H-pyrazol-5-yl)-3-methyl-4,5,6,7-tetrahydro-1H-pyrazolo[3,4-c]pyridine]
0.05 to 1 | 0.05 to 1 | COc1ncnc(C2CC2)c1-c1nn(C)c2c1CN(c1ncc(-c3nc(C(F)(F)F)cn3C(C)C)s1)C2 [Compound 8, 2-(3-(4-cyclopropyl-6-methoxypyrimidin-5-yl)-1-methyl-4,6-dihydropyrrolo[3,4-c]pyrazol-5(1H)-yl)-5-(1-isopropyl-4-(trifluoromethyl)-1H-imidazol-2-yl)thiazole]
< 0.05 | < 0.05 | CCn1cc(C(F)(F)F)nc1-c1cnc(N2CCc3c(C)nn(-c4c(C)cnn4C(C)C)c3C2)cn1 [Compound 29, 6-(5-(1-ethyl-4-(trifluoromethyl)-1H-imidazol-2-yl)pyrazin-2-yl)-1-(1-isopropyl-4-methyl-1H-pyrazol-5-yl)-3-methyl-4,5,6,7-tetrahydro-1H-pyrazolo[3,4-c]pyridine]
< 0.05 | 0.05 to 1 | CC(C)c1ncccc1-c1nccc2c1CC(c1ccc(-c3nc(C(F)(F)F)cn3C)cc1)C2 (centres unmarked) [Compound 26, 1-(2-isopropylpyridin-3-yl)-6-(4-(1-methyl-4-(trifluoromethyl)-1H-imidazol-2-yl)phenyl)-6,7-dihydro-5H-cyclopenta[c]pyridine]
